In PubChem BioAssay (NCI):
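Step 1: Grow cells in 96-well plates. Step 2: Expose to compound for 48 hours at 5 concentrations. Step 3: Interpolate endpoints linearly; if unreached, use highest concentration. At the TGI there is no net growth.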 Where a SMILES comes first, the peptide text is derived from it. The star is where a group is joined. Cbz = O=C(OCc1ccccc1)*

What was measured:
Experiment in all cases: growth of human tumour cells (NCI), 48 h
[1] = tested on: A498 renal
[2] = tested on: CAKI-1 renal
[3] = tested on: COLO 205 colon
[4] = tested on: HCT-116 colon
[5] = tested on: K-562 leukemia
[6] = tested on: MDA-MB-435
[7] = tested on: OVCAR-5 ovarian
[8] = tested on: SK-MEL-28 melanoma
[9] = tested on: SK-OV-3 ovarian
[10] = tested on: SN12C renal
[11] = tested on: UO-31 renal

| Structure (SMILES) | TGI [1] [µM] | TGI [2] [µM] | TGI [3] [µM] | TGI [4] [µM] | TGI [5] [µM] | TGI [6] [µM] | TGI [7] [µM] | TGI [8] [µM] | TGI [9] [µM] | TGI [10] [µM] | TGI [11] [µM] |
| --- | --- | --- | --- | --- | --- | --- | --- | --- | --- | --- | --- |
| N#Cc1cc2c(cc1Cl)Sc1nnc(Nc3ccccc3)n1S2(=O)=O | 20.8 | 3.34 | 4.75 | 4 | 11.1 | 4.8 | 3.8 | 5.4 | 17.3 | 3.24 | 3.89 |
| O=C1OCC2OC(=O)c3cc(O)c(O)c(O)c3-c3c(O)c(O)c(O)c4c3C(=O)OC(C2OC(=O)c2cc(O)c(O)c(O)c2-c2c1cc(O)c(O)c2O)C1OC(=O)C2C4=C(O)C(=O)C23Oc2cc(O)c4c(c2[C@H]13)O[C@H](c1ccc(O)c(O)c1)[C@@H](O)C4 (some centres not stated) | > 100 | 30.7 | 54.9 | 40.3 | 72.3 | 45 | 36.2 | > 100 | > 100 | 42 | > 100 |
| Cn1nnnc1SC(F)(F)c1nc2ccccc2o1 | > 100 | > 100 | > 100 | > 100 | > 100 | > 100 | > 100 | > 100 | > 100 | > 100 | > 100 |
| CCOC(=O)CCC(NC(=O)C(Cc1ccccc1)NC(=O)OCc1ccccc1)C(=O)OCC (stereo not drawn) (Cbz-Phe-Glu(OEt)-OEt; configuration not given here) | 43.9 | 30.4 | 35.3 | 32.1 | > 100 | 35.5 | 32.6 | 33.2 | 30.5 | 37.7 | 31.2 |
| O=C1c2c(Br)sc(Br)c2C(=O)C1(O)O | > 100 | 33.3 | 50.7 | 38.4 | 79.8 | 38.9 | 50.3 | > 100 | > 100 | > 100 | 58.2 |
| Cc1ccnc2c1C(=O)C1=C(OC(C)(C)CC1O)C2=O (configuration not stated) | 32 | 19 | 6.52 | 9.98 | > 100 | 2.73 | 20.6 | 5.16 | 27.2 | 12.4 | 11.3 |
| C=C1CCCCCCCCC/C=C/1SCCCSC | > 100 | > 100 | > 100 | > 100 | > 100 | > 100 | > 100 | > 100 | > 100 | > 100 | > 100 |
| NCCCNCCCCN1CCOC1=O | > 100 | > 100 | > 100 | > 100 | > 100 | > 100 | > 100 | > 100 | > 100 | > 100 | > 100 |
| CCOC(=O)C(NC(=O)c1ccccc1)(N1CCN(c2cc3c(cc2F)c(=O)c(C(=O)O)cn3C2CC2)CC1)C(F)(F)F (configuration not stated) | 72 | 50.2 | 30.8 | 31.6 | 46.6 | 45.2 | 40.5 | 74.6 | 80.2 | 79.3 | 63.3 |
| COc1cccc(CC(=O)N2CCN(CCCc3ccccc3)CC2)c1 | > 100 | > 100 | > 100 | > 100 | > 100 | > 100 | > 100 | > 100 | > 100 | > 100 | > 100 |
| CN1CC=C(c2c(N)nc(N)[nH]c2=O)CC1 | > 100 | > 100 | > 100 | > 100 | > 100 | > 100 | > 100 | > 100 | > 100 | > 100 | > 100 |
| Oc1c(Br)ccc2cccnc12 | 51.8 | 60.3 | > 33.8 | > 100 | > 31.4 | > 100 | > 100 | > 100 | 61.6 | > 100 | 22.8 |
| O=C1CCSCCC(=O)Nc2ccccc2N1 | > 100 | > 100 | > 100 | > 100 | > 100 | > 100 | > 100 | > 100 | > 100 | > 100 | > 100 |
| C=CC1(CC[C@]2(c3ccc(OC)c(OC)c3)C=[N+]([O-])O[C@H](O[C@@H]3CCCC[C@H]3C(C)(C)c3ccccc3)C2)OCC(C)(C)CO1 | > 61 | > 28 | > 53.3 | 41.3 | > 56.9 | > 51.1 | 39 | 53.8 | > 65.3 | 22.8 | > 48.7 |
| COc1cc2nc(-c3cccs3)nc(Cl)c2cc1OC | > 100 | > 100 | > 100 | > 100 | > 100 | > 100 | > 100 | > 100 | > 100 | > 100 | > 100 |
| COc1ccc(N2C(=O)C(=O)N(c3ccc(N=Nc4ccccc4)cc3)C2=S)cc1 | 52.3 | 47.2 | 31.4 | 35.2 | > 100 | 48.9 | 44.6 | 41.2 | 68.4 | 33.2 | 30.3 |
| CCOC(=O)CCC1(CCC(=O)OCC)CCCCCCCCC(CCC(=O)OCC)(CCC(=O)OCC)C(=O)C1=O | > 100 | > 100 | > 100 | > 100 | > 100 | > 100 | > 100 | > 100 | > 100 | > 100 | – |
| CC(=O)SC(C[N+](=O)[O-])c1ccc2c(c1)OCO2 (configuration not stated) | 18.3 | 18.6 | 36.9 | 5.22 | > 28.7 | 17.6 | 16 | 9.78 | 18 | 14.7 | 11.9 |
